System: Drosophila heart
Assay: Effects of anesthesia on heart rate
Assay type: in vivo, Drosophila melanogaster
Conditions: for effect of anesthesia on heart rate (in words): anesthetized Drosophila
Excerpt: […] The flies are removed from the vial as soon as they are immobile.
A more preferred aspect the microscope is a Nikon Diaphot-TMD inverted microscope, with Nomarski (DIC) optics (without analyzer) and a 10×(N.A. 0.25) objective. Preferably, images are obtained by closing the field diaphragm, so that the light-beam is concentrated on the first ventricle of the fly's heart, and the intensity of the light-beam is increased to the maximum. Most preferably, the flies are positioned on their backs, approximately perpendicular to the light path, and fixed in this position by mounting the spread wings on a glass slide with double-stick tape. Images of the first cardiac ventricle are recorded using a Sony DXC-101 video camera on VHS tape, or using a similar recording apparatus, and the heart rate is measured from slow-motion replays. End-diastolic and end-systolic dimensions are measured on still images at the mid-point between the two major transversal tracheal tubes passing over the first cardiac ventricle. The images can also be analyzed by appropriate image analysis software. In certain aspects of the present invention semi-automated digital image processing is used to measure heart rate and its variation directly from video signals recorded in a single fly or multiple flies. Automated detection allows parameters such as heart rate variability to be detected in a single fly. […] For each fly 2-second video sequences (60 frames each) 10 times consecutively are acquired. […] After applying a low pass filter to reduce noise in the time-space signal, heart rate is estimated by automated counting of the peaks in the signal. […] An average and a standard deviation of the repetitions in the same fly, for example (i.e. about 10 repetitions) are obtained and the coefficient of variation is calculated (Armitage P, Berry G. Statistical Methods in Medical Research. 3rd ed. Oxford: Blackwell Scientific; 1994).
CO2 the most commonly employed anesthetic for Drosophila.

SMILES	effect of anesthesia on heart rate (in words)	resumption of heart beat after cessation of gas exposure (n=10) [s]	heart rate immediately after anesthesia (immediately after ether anesthesia, n=5) [beats per minute]	heart rate after 30–40 min when leg movements began to return (same flies after 30–40 min, n=5, p=0.001) [beats per minute]	heart rate immediately after anesthesia (older flies, 48 days, n=7, first value) [beats per minute]	heart rate after recovery under the same conditions (older flies, 48 days, n=7, second value) [beats per minute]	heart rate immediately after anesthesia (young flies, 10 days, n=6, first value) [beats per minute]	heart rate after recovery under the same conditions (young flies, 10 days, n=6, second value) [beats per minute]
O=C=O [CO2]	cardiac arrest within a few seconds	20 to 30						
CCOCC [Ethyl-ether]	depress heart rate		120±19	248±11				
CCN(CC)CC [triethylamine]	not cause significant changes in heart rate				213±6	211±11	283±6	282±4
